Assay results from the supplement of paper PMC10307832.

What was measured:
Assay in all cases: relative viability (nuclei count vs DMSO), 5 days (fraction); higher = more cells survive
[1] = compound: C[C@@]1(C(=O)Nc2ccc(F)nc2)CCCN1c1nc(Nc2cc(C3CC3)n[nH]2)c2cccn2n1 + C[C@@H](Oc1cc(-c2cnn(C3CCNCC3)c2)cnc1N)c1c(Cl)ccc(F)c1Cl [Crizotinib] (partner 1 µM)
Procedure, shortened: (§1)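 Five library-drug doses in √10 steps were combined with a fixed anchor-drug dose, or a single drug was given alone, by pin tool to lung cancer cell lines in 1536-well plates the day after seeding. Nuclei were stained and counted after 5 days. Relative viability is the nuclei count in treated wells over that in vehicle wells, taken as the median of duplicate plates.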

Motesanib + Foretinib = compound: CC1(C)CNc2cc(NC(=O)c3cccnc3NCc3ccncc3)ccc21 [Motesanib] + COc1cc2c(Oc3ccc(NC(=O)C4(C(=O)Nc5ccc(F)cc5)CC4)cc3F)ccnc2cc1OCCCN1CCOCC1 [Foretinib] (partner 0.25 µM)
Procedure, shortened: as §1

[2] = compound: C[C@@]1(C(=O)Nc2ccc(F)nc2)CCCN1c1nc(Nc2cc(C3CC3)n[nH]2)c2cccn2n1 + CC(C)C[C@H](NC(=O)[C@H](Cc1ccccc1)NC(=O)c1cnccn1)B(O)O [Bortezomib] (partner 0.002 µM)
Procedure, shortened: as §1

Motesanib + Tozasertib = compound: CC1(C)CNc2cc(NC(=O)c3cccnc3NCc3ccncc3)ccc21 [Motesanib] + Cc1cc(Nc2cc(N3CCN(C)CC3)nc(Sc3ccc(NC(=O)C4CC4)cc3)n2)n[nH]1 [Tozasertib] (partner 0.1 µM)
Procedure, shortened: as §1

## UMC-11
[1]; first compound 0.04 µM
  relative viability: 0.615
[1]; first compound 0.1265 µM
  relative viability: 0.628
[1]; first compound 0.4 µM
  relative viability: 0.534
[1]; first compound 1.265 µM
  relative viability: 0.328
Motesanib + Foretinib; first compound 0.01 µM
  relative viability: 0.998
Motesanib + Foretinib; first compound 0.03162 µM
  relative viability: 1.08
Motesanib + Foretinib; first compound 0.1 µM
  relative viability: 0.985
Motesanib + Foretinib; first compound 0.3162 µM
  relative viability: 1.08
Motesanib + Foretinib; first compound 1 µM
  relative viability: 1.2
[2]; first compound 0.04 µM
  relative viability: 0.79
[2]; first compound 0.1265 µM
  relative viability: 0.829
[2]; first compound 0.4 µM
  relative viability: 0.598
[2]; first compound 1.265 µM
  relative viability: 0.733
Motesanib + Tozasertib; first compound 0.01 µM
  relative viability: 0.205
Motesanib + Tozasertib; first compound 0.03162 µM
  relative viability: 0.213
Motesanib + Tozasertib; first compound 0.1 µM
  relative viability: 0.216
Motesanib + Tozasertib; first compound 0.3162 µM
  relative viability: 0.207
Motesanib + Tozasertib; first compound 1 µM
  relative viability: 0.228
